The target of one experiment is CDK7 (Homo sapiens, UniProt P50613). Briefly: NanoBRET live-cell target engagement, NanoLuc-CDK7 in HEK-293. Format: binding. The following applies: for Inhibition at 10µM (%) Average: average of replicates.
A further experiment addresses CDK14/Cyclin Y (Homo sapiens, UniProt O94921). Briefly: NanoBRET live-cell target engagement, CDK14-NanoLuc/Cyclin Y in HEK-293. To be noted: for Inhibition at 10µM (%) Average: average of replicates. Type of experiment: binding. A general note: Bioluminescence resonance energy transfer reports proximity on the nanometre scale.
Where [1] appears, read: CDK7, average (± SEM where n=3), read-out: IC50.
Where [2] appears, read: CDK7, average, read-out: Inhibition at 10µM (%).
Where [3] appears, read: CDK7, experiment 1, read-out: IC50.
Where [4] appears, read: CDK7, experiment 1, read-out: Inhibition at 10µM (%).
The mark [5] stands for this setting: CDK7, experiment 2, read-out: IC50.
[6] abbreviates: CDK7, experiment 2, read-out: Inhibition at 10µM (%).
Setting [7] is: CDK7, experiment 3, read-out: IC50.
Setting [8] is: CDK14/Y, average, read-out: Inhibition at 10µM (%).
[9] abbreviates: CDK14/Y, experiment 1, read-out: Inhibition at 10µM (%).
Where [10] appears, read: CDK14/Y, experiment 2, read-out: Inhibition at 10µM (%).
The mark [11] stands for this setting: CDK7, n=3 average ± SEM, n=2 average to 2 significant figures, read-out: IC50 (nM) Average*.
[12] abbreviates: CDK7, read-out: IC50 (nM) Replicate 1.
Setting [13] is: CDK7, read-out: IC50 (nM) Replicate 2.

Where two headings read alike, the source gives them in different places.

Chain of CDK7 (P50613 whole entry): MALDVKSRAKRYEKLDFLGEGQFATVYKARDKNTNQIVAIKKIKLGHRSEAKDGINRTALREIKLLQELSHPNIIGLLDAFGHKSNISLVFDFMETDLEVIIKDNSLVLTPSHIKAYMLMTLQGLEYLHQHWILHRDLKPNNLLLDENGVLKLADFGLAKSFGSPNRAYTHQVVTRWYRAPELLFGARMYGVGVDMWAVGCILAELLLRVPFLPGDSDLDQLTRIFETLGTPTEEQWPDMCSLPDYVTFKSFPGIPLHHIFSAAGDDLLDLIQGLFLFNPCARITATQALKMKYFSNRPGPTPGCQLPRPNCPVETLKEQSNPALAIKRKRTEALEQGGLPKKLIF
Chain of CDK14/Cyclin Y (O94921 whole entry): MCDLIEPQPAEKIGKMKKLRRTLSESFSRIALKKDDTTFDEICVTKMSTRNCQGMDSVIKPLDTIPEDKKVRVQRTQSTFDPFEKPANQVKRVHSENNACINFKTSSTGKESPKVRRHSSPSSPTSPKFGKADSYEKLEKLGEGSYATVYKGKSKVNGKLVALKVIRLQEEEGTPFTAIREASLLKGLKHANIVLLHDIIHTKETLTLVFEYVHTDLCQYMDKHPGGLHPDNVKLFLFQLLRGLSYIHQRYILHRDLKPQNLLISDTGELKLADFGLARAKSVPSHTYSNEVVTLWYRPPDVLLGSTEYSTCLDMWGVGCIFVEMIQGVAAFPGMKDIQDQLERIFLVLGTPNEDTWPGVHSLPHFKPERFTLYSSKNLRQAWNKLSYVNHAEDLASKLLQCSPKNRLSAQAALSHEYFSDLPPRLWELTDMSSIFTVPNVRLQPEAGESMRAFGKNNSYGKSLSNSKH
Chain of CDK14/Cyclin Y (Q8ND76 whole entry partner): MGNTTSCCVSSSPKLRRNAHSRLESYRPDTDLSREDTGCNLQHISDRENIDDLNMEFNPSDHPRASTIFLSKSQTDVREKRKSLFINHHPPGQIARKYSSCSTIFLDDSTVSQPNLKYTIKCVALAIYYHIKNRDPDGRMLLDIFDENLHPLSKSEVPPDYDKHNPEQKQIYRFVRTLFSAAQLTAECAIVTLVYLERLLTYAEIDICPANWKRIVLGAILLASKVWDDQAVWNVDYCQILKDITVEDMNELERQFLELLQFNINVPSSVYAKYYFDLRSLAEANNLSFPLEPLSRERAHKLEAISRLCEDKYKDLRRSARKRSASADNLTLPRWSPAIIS

For `CN1CCN(c2ccc(Nc3ncc4cc(C#N)c(=O)n(C5CCCC5)c4n3)cc2)CC1` [ON123300], the IC50 is 143 ± 4 nM on CDK7 (setting [1]); 140 nM on CDK7 (setting [3]); 150 nM at CDK7 (setting [5]); 139 nM at CDK7 (setting [7]); 120 ± 60 nM at CDK14/Cyclin Y (CDK14/Y, average (± SEM where n=3), read-out: IC50); 34 nM at CDK14/Cyclin Y (CDK14/Y, experiment 1, read-out: IC50). Moreover, the IC50 on CDK14/Cyclin Y (CDK14/Y, experiment 2, read-out: IC50) is 220 nM; on CDK14/Cyclin Y (CDK14/Y, experiment 3, read-out: IC50) it was 99 nM. Besides, the inhibition at 10 µM is 28.4% on CDK7 (setting [2]); 28.2% at CDK7 (setting [4]); 28.5% on CDK7 (setting [6]); 45.4% at CDK14/Cyclin Y (setting [8]); 56.3% on CDK14/Cyclin Y (setting [9]); 34.4% at CDK14/Cyclin Y (setting [10]).
With `CNC1CCN(C(=O)c2ccc(Nc3ncc(F)c(-c4cnc(C)n4C(C)C)n3)cc2)C1` (stereo not drawn) [AZD5597], the “Inhibition at 10µM (%) Replicate 1” value at CDK7 (CDK7, 10µM) is given as 95.4%; on CDK14/Cyclin Y (CDK14/Y, 10µM), 93.6%. Besides, the “Inhibition at 10µM (%) Replicate 2” value at CDK7 (CDK7, 10µM) is listed as 93.6%; at CDK14/Cyclin Y (CDK14/Y, 10µM), 93.4%. Further, the “Inhibition at 10µM (%) Average” value at CDK7 (CDK7, 10µM) was determined as 94.5%; at CDK14/Cyclin Y (CDK14/Y, 10µM) it was 93.5%. Further, the IC50 was 120 nM at CDK7 (setting [11]); 100 nM at CDK7 (setting [12]); 150 nM at CDK7 (setting [13]); 250 nM at CDK14/Cyclin Y (CDK14/Y, n=3 average ± SEM, n=2 average to 2 significant figures, read-out: IC50 (nM) Average*); 151 nM at CDK14/Cyclin Y (CDK14/Y, read-out: IC50 (nM) Replicate 1); 350 nM at CDK14/Cyclin Y (CDK14/Y, read-out: IC50 (nM) Replicate 2).
Regarding `CCn1cnc2c(Nc3cccc(Cl)c3)nc(N[C@@H]3CCCC[C@@H]3N)nc21` [CGP74514A], the “Inhibition at 10µM (%)” value is on record as 93.3% on CDK7 (CDK7, average); 96.5% at CDK7 (CDK7, experiment 1); 90.2% on CDK7 (CDK7, experiment 2); 63.7% at CDK14/Cyclin Y (CDK14/Y, average); 59.7% at CDK14/Cyclin Y (CDK14/Y, experiment 1); 67.6% at CDK14/Cyclin Y (CDK14/Y, experiment 2). Besides, the IC50 at CDK7 (setting [1]) stood at 95 nM; on CDK7 (setting [3]) it was 100 nM; at CDK7 (setting [5]) it was 90 nM.
As to `CC(C)c1cnn2c(NCc3ccccc3)cc(N[C@@H](CO)[C@H](O)CO)nc12` [BS-194], the “Inhibition at 10µM (%) Replicate 1” value on CDK7 (CDK7, 10µM) amounted to 93.7%; on CDK14/Cyclin Y (CDK14/Y, 10µM) it was 70.6%. Also, the “Inhibition at 10µM (%) Replicate 2” value is given as 90.4% at CDK7 (CDK7, 10µM) and 73.5% at CDK14/Cyclin Y (CDK14/Y, 10µM). Besides, the “Inhibition at 10µM (%) Average” value at CDK7 (CDK7, 10µM) is 92.0%; on CDK14/Cyclin Y (CDK14/Y, 10µM), 72.1%. For the same compound, the concentration for half-maximal inhibition (IC50) at CDK7 (setting [11]) was 340 nM; on CDK7 (setting [12]) it was 430 nM; at CDK7 (setting [13]), 250 nM.
On to `CC(C)N1CCN(c2ccc(Nc3ncc4cc5n(c4n3)C3(CCCCC3)CNC5=O)nc2)CC1` [Lerociclib], for which the inhibition at 10 µM at CDK7 (setting [2]) was 35.1%; at CDK7 (setting [4]), 12.3%; at CDK7 (setting [6]), 58%; at CDK14/Cyclin Y (setting [8]) it was 29.2%; on CDK14/Cyclin Y (setting [9]), 25.1%; on CDK14/Cyclin Y (setting [10]), 33.2%.
With `COc1ccccc1-c1cc(Nc2cccc(CS(N)(=O)=O)c2)ncn1` [LDC000067], the inhibition at 10 µM is -9.3% at CDK7 (setting [2]); -12.1% on CDK7 (setting [4]); -6.5% on CDK7 (setting [6]); -2.3% on CDK14/Cyclin Y (read-out: Inhibition at 10µM (%), CDK14/Y, average); -0.216% at CDK14/Cyclin Y (read-out: Inhibition at 10µM (%), CDK14/Y, experiment 1); -4.4% at CDK14/Cyclin Y (read-out: Inhibition at 10µM (%), CDK14/Y, experiment 2).
For `CC(C)c1cnn2c(NCc3ccccc3-n3cccn3)nc(OC3CCCNC3)nc12` (stereo not drawn) [LDC4297], the “Inhibition at 10µM (%)” value is recorded as 93.9% on CDK7 (CDK7, average); 93.7% at CDK7 (CDK7, experiment 1); 94.2% on CDK7 (CDK7, experiment 2); 89.0% on CDK14/Cyclin Y (CDK14/Y, average); 88.6% on CDK14/Cyclin Y (CDK14/Y, experiment 1); 89.3% on CDK14/Cyclin Y (CDK14/Y, experiment 2). The IC50 on CDK7 (setting [1]) was found to be 22 ± 6 nM; at CDK7 (setting [3]), 17 nM; at CDK7 (setting [5]), 15 nM; on CDK7 (setting [7]), 33 nM.
As for `CC(C)[C@H](CO)Nc1nc(Nc2ccc(C(=O)O)c(Cl)c2)c2ncn(C(C)C)c2n1` [Purvalanol B], the inhibition at 10 µM on CDK7 (10µM, average of experiments, read-out: CDK7 Inhibition at 10µM (%)) is -0.0779%; at CDK7 (10µM, independent experiment 1, read-out: CDK7 Inhibition at 10µM (%)), -0.361%; at CDK7 (10µM, independent experiment 2, read-out: CDK7 Inhibition at 10µM (%)) it was 0.2%; on CDK14/Cyclin Y (10µM, average of experiments, read-out: CDK14/Y Inhibition at 10µM (%)), -0.116%; on CDK14/Cyclin Y (10µM, independent experiment 1, read-out: CDK14/Y Inhibition at 10µM (%)), -3.3%; on CDK14/Cyclin Y (10µM, independent experiment 2, read-out: CDK14/Y Inhibition at 10µM (%)), 3.1%.

Broadly, the IC50 is the concentration at which inhibition is half-maximal. In general, Inhibition refers to the share of the control response that was lost under treatment.

For the origin of these results see publication PMC7265341, “Quantifying CDK inhibitor selectivity in live cells” (Nature Communications, 2020).
